Measured values as given in ChEMBL document CHEMBL1131513, “SAR studies of diaryltriazoles against bacterial two-component regulatory systems and their antibacterial activities” (Bioorg Med Chem Lett, 1998).
≈ marks a conversion by molar mass, not a printed value.

How the values were obtained:
[1] = Ratio of NRII-NRI to KinA-Spo0F IC50s
[2] = (§1) Inhibition of NRII and/or NRI phosphorylation in Escherichia coli; assay type: functional
Bacteria [3] = assay: Minimum inhibitory concentration for Gram-positive antibacterial activity by using standard MIC broth assay method; assay type: functional
[4] = biological target: T1, KinA/Spo0F (sporulation kinase A/sporulation initiation phosphotransferase F) (Bacillus subtilis (strain 168), UniProt P06628+P16497); assay: Ability to inhibit autophosphorylation of KinA/Sp0F assay; assay type: protein assay
T1 sequence (P06628 whole entry): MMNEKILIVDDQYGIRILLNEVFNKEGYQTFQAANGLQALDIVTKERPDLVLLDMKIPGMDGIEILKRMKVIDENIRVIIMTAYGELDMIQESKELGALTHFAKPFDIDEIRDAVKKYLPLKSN
T1 sequence (P16497 whole entry): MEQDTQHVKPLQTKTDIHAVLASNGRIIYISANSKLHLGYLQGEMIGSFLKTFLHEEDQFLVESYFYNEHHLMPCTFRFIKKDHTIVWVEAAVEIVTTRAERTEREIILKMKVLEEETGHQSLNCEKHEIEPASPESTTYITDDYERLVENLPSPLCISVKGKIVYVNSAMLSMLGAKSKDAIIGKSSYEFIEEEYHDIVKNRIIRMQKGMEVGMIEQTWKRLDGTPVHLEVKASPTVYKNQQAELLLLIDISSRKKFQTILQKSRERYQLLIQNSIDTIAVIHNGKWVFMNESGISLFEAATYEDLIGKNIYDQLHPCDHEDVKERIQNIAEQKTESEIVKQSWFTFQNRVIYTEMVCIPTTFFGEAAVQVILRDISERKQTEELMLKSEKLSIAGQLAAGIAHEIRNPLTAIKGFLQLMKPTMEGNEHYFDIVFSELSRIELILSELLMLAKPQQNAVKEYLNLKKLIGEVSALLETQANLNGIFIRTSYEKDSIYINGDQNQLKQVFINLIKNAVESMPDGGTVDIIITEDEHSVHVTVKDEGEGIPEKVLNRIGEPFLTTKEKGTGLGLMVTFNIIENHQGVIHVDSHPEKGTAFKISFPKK

Bacteria [5] = assay: Minimum inhibitory concentration for Gram-positive antibacterial activity by using standard MIC broth assay method; 0.5-1; assay type: functional
[6] = as §1
Bacteria [7] = assay: Minimum inhibitory concentration for Gram-positive antibacterial activity by using standard MIC broth assay method; 0.5-2; assay type: functional
Bacteria [8] = assay: Minimum inhibitory concentration for Gram-positive antibacterial activity by using standard MIC broth assay method; 4-8; assay type: functional
Bacteria [9] = assay: Minimum inhibitory concentration for Gram-positive antibacterial activity by using standard MIC broth assay method; 0.25-0.5; assay type: functional
Bacteria [10] = assay: Minimum inhibitory concentration for Gram-positive antibacterial activity by using standard MIC broth assay method; 0.25-1; assay type: functional
Bacteria [11] = assay: Minimum inhibitory concentration for Gram-positive antibacterial activity by using standard MIC broth assay method; 8-16; assay type: functional
Bacteria [12] = assay: Minimum inhibitory concentration for Gram-positive antibacterial activity by using standard MIC broth assay method; 0.1-0.5; assay type: functional

Ratio [1] | IC50 [4] | Compound | also measured
3.5 | 8 µM | O=[N+]([O-])c1cc(-c2n[nH]c(-c3ccc(Cl)c(Cl)c3)n2)c(O)c([N+](=O)[O-])c1 | IC50 [2]: 28 µM; MIC (Bacteria [3]): > 64 µg/mL
1.5 | 87 µM | Oc1c(Cl)cc(Cl)cc1-c1n[nH]c(-c2cccc(Cl)c2)n1 | MIC (Bacteria [5]): 0.5 µg/mL (≈ 1.47 µM); IC50 [6]: 130 µM
0.71 | 80 µM | Oc1c(Cl)cc(Cl)cc1-c1n[nH]c(-c2ccc(Cl)cc2)n1 | MIC (Bacteria [7]): 0.5 µg/mL (≈ 1.47 µM); IC50 [6]: 57 µM
0.75 | 100 µM | Oc1c(Br)cc(Br)cc1-c1n[nH]c(-c2ccc(Oc3ccccc3)cc2)n1 | IC50 [6]: 75 µM
– | > 500 µM | Cc1ccc(-c2n[nH]c(-c3cc(Cl)cc(Cl)c3O)n2)cc1C | MIC (Bacteria [8]): 4 µg/mL (≈ 12 µM)
2.2 | 67 µM | Oc1c(Cl)cc(Cl)cc1-c1n[nH]c(-c2ccc(Cl)c(Cl)c2)n1 | MIC (Bacteria [9]): 0.25 µg/mL (≈ 0.667 µM); IC50 [6]: 150 µM
– | > 500 µM | O=[N+]([O-])c1ccc(-c2nc(-c3cc(Cl)cc(Cl)c3O)n[nH]2)cc1 | –
– | 380 µM | Oc1c(Cl)cc(Cl)cc1-c1n[nH]c(-c2ccccc2)n1 | –
– | > 500 µM | CC(C)(C)c1cc(-c2n[nH]c(-c3ccc(Cl)c(Cl)c3)n2)c(O)c(C(C)(C)C)c1 | –
– | 44 µM | Oc1c(-c2n[nH]c(-c3ccc(Cl)c(Cl)c3)n2)cc(C(F)(F)F)cc1C(F)(F)F | MIC (Bacteria [10]): 0.25 µg/mL (≈ 0.565 µM)
– | 24 µM | Oc1c(Br)cc(Br)cc1-c1n[nH]c(-c2ccc(Cl)c(Cl)c2)n1 | MIC (Bacteria [9]): 0.25 µg/mL (≈ 0.539 µM)
– | 91 µM | NS(=O)(=O)c1ccc(O)c(-c2n[nH]c(-c3ccc(Cl)c(Cl)c3)n2)c1 | MIC (Bacteria [11]): 8 µg/mL (≈ 20.8 µM)
– | > 500 µM | Oc1c(Cl)cccc1-c1n[nH]c(-c2ccc(Cl)c(Cl)c2)n1 | –
4.1 | 16 µM | Oc1c(Cl)cc(Cl)cc1-c1n[nH]c(-c2ccc(Cl)c(C(F)(F)F)c2)n1 | MIC (Bacteria [10]): 0.25 µg/mL (≈ 0.612 µM); IC50 [6]: 65 µM
– | > 500 µM | COc1ccc(-c2n[nH]c(-c3cc(Cl)cc(Cl)c3O)n2)cc1 | –
– | > 500 µM | Oc1ccc(Cl)cc1-c1n[nH]c(-c2ccc(Cl)c(Cl)c2)n1 | MIC (Bacteria [3]): > 32 µg/mL
– | 37 µM | O=C(Nc1ccc(Cl)c(Cl)c1)c1cc(Cl)cc(Cl)c1O [3,3',4',5-TETRACHLOROSALICYLANILIDE] | MIC (Bacteria [12]): 0.1 µg/mL (≈ 0.285 µM)
– | > 500 µM | CC(C)c1ccc(-c2n[nH]c(-c3cc(Cl)cc(Cl)c3O)n2)cc1 | –
